Data taken from DBAASP.
≈ marks a conversion by molar mass, not a printed value. Where “and” joins values, the source holds several entries; their conditions need not be identical. Identical values can stand only once.

Tests used:
Experiment in all cases: ≥ marks a high value that may be exact or a test limit, other limits are often not marked, values filed in µg/mL are converted to µM
[1] = test system: Escherichia coli ATCC 25922
Escherichia coli UB1005 = test system: Escherichia coli UB1005
[2] = test system: Staphylococcus epidermidis ATCC 12228
[3] = test system: Staphylococcus aureus ATCC 25923
[4] = test system: Salmonella enterica subsp. enterica serovar Typhimurium C77-31
[5] = test system: Staphylococcus aureus ATCC 29213
[6] = test system: Staphylococcus aureus NCTC 8325
[7] = test system: Acinetobacter baumannii ATCC 19606
[8] = test system: Pseudomonas aeruginosa ATCC 27853
[9] = test system: Staphylococcus aureus ATCC 6538
[10] = test system: Pseudomonas aeruginosa ATCC 9027
[11] = test system: Candida albicans ATCC 10231
[12] = test system: Enterococcus faecalis ATCC 29212

CC[C@H](C)[C@H](NC(=O)[C@H](Cc1c[nH]c2ccccc12)NC(=O)[C@H](CCCCN)NC(=O)[C@H](CC(C)C)NC(=O)[C@@H](NC(=O)[C@H](CCCCN)NC(=O)CNC(=O)[C@@H](NC(=O)[C@H](CCCCN)NC(=O)[C@H](CCCCN)NC(=O)[C@H](CC(C)C)NC(=O)[C@H](CCCN=C(N)N)NC(=O)[C@H](CCCCN)NC(=O)[C@H](CCCN=C(N)N)NC(=O)[C@@H](NC(=O)[C@H](CCCCN)NC(=O)[C@H](CCCCN)NC(=O)[C@H](CCCN=C(N)N)NC(=O)[C@H](CC(C)C)NC(=O)[C@H](CCCN=C(N)N)NC(=O)[C@H](CCCN=C(N)N)NC(=O)[C@H](Cc1ccccc1)NC(=O)[C@H](CCCN=C(N)N)NC(=O)CN)[C@@H](C)O)[C@@H](C)CC)C(C)C)C(N)=O [GRFRRLRKKTRKRLKKIGKVLKWI]
MIC [1]: 1 µM and 2 µM | MIC (Escherichia coli UB1005): 2 µM (≈ 6.13 µg/mL) | MIC [2]: 2 µM (≈ 6.13 µg/mL) | MIC [3]: 4 µM (≈ 12.3 µg/mL) | MIC [4]: 1 µM (≈ 3.06 µg/mL) | MIC [5]: 2 µM (≈ 6.13 µg/mL)

CC[C@H](C)[C@H](NC(=O)[C@H](CCSC)NC(=O)[C@H](CO)NC(=O)CNC(=O)[C@H](Cc1ccccc1)NC(=O)[C@@H](N)Cc1ccccc1)C(=O)NCC(=O)N[C@@H](C)C(=O)N[C@@H](CC(C)C)C(=O)N[C@@H](C)C(=O)N[C@@H](CCCCN)C(=O)NCC(=O)N[C@@H](CC(C)C)C(=O)N1CCC[C@H]1C(=O)N[C@@H](CO)C(=O)N[C@@H](CC(C)C)C(=O)N[C@H](C(=O)N[C@@H](CO)C(=O)N[C@@H](CC(C)C)C(=O)N[C@H](C(=O)N[C@@H](CCCCN)C(=O)N[C@@H](CCCCN)C(N)=O)[C@@H](C)CC)[C@@H](C)CC [FFGSMIGALAKGLPSLISLIKK]
MIC [1]: 12.5 µM (≈ 28.6 µg/mL) | MIC [6]: 12.5 µM (≈ 28.6 µg/mL)

CC(C)C[C@H](NC(=O)[C@H](CC(C)C)NC(=O)[C@H](CCCCN)NC(=O)[C@H](CCCCN)NC(=O)[C@H](CC(C)C)NC(=O)[C@H](CO)NC(=O)[C@H](CCCCN)NC(=O)[C@H](CC(C)C)NC(=O)[C@@H](N)Cc1ccccc1)C(N)=O [FLKSLKKLL]
MIC [1]: 58.7 µM (≈ 63.9 µg/mL) | MIC [7]: > 117 µM | MIC [8]: 7.34 µM (≈ 7.99 µg/mL) | MIC [3]: 117 µM (≈ 128 µg/mL)

CC(C)C[C@H](NC(=O)[C@H](C)NC(=O)[C@H](CCCCN)NC(=O)[C@H](CCCCN)NC(=O)[C@H](Cc1ccccc1)NC(=O)[C@H](C)NC(=O)[C@H](CCCCN)NC(=O)[C@H](C)NC(=O)[C@H](Cc1ccccc1)NC(=O)[C@H](CC(C)C)NC(=O)[C@H](CCCCN)NC(=O)[C@H](C)NC(=O)[C@@H](N)Cc1ccccc1)C(N)=O [FAKLFAKAFKKAL]
MIC [9]: 67.4 µM (≈ 99.9 µg/mL) | MIC [10]: 135 µM (≈ 200 µg/mL)

CC(C)C[C@H](NC(=O)[C@H](CCCN=C(N)N)NC(=O)[C@H](CCCCN)NC(=O)[C@H](Cc1c[nH]c2ccccc12)NC(=O)[C@@H](NC(=O)[C@H](CCCCN)NC(=O)[C@H](CCCCN)NC(=O)[C@H](CCCN=C(N)N)NC(=O)[C@H](CC(C)C)NC(=O)[C@H](CCCN=C(N)N)NC(=O)[C@@H](N)CCCN=C(N)N)[C@@H](C)O)C(=O)N[C@@H](Cc1c[nH]c2ccccc12)C(N)=O [RRLRKKTWKRLW]
MIC [1]: 16 µM (≈ 27.6 µg/mL) | MIC (Escherichia coli UB1005): ≥ 32 µM | MIC [2]: 64 µM (≈ 110 µg/mL) | MIC [3]: > 128 µM | MIC [4]: ≥ 64 µM | MIC [5]: 64 µM (≈ 110 µg/mL)

CC(C)C[C@H](NC(=O)[C@H](C)NC(=O)[C@H](CCCCN)NC(=O)[C@H](CCCCN)NC(=O)[C@H](CC(C)C)NC(=O)[C@H](Cc1ccccc1)NC(=O)[C@H](CCCCN)NC(=O)[C@H](C)NC(=O)[C@H](CC(C)C)NC(=O)[C@H](CC(C)C)NC(=O)[C@H](CCCCN)NC(=O)[C@H](C)NC(=O)[C@@H](N)Cc1ccccc1)C(N)=O [FAKLLAKFLKKAL]
MIC [9]: 6.71 µM (≈ 9.99 µg/mL) | MIC [10]: 134 µM (≈ 200 µg/mL)

CC[C@H](C)[C@@H]1NC(=O)[C@H](C)NC(=O)[C@@H](NC(=O)[C@H](Cc2ccccc2)NC(=O)[C@@H](NC(=O)[C@H](CCCCN)NC(=O)[C@@H]2CCCN2C(=O)[C@H](CC(C)C)NC(=O)[C@H](Cc2ccccc2)NC(=O)[C@H](CCCCN)NC(=O)[C@H](C)NC(=O)[C@H](C)NC(=O)[C@H](CCSC)NC(=O)CNC(=O)[C@H](C)NC(=O)[C@@H](NC(=O)[C@H](Cc2ccccc2)NC(=O)[C@@H]2CCCN2C(=O)[C@H](CC(C)C)NC(=O)[C@@H](N)Cc2ccccc2)[C@@H](C)CC)[C@@H](C)CC)CSSC[C@@H](C(=O)O)NC(=O)[C@H](CCCCN)NC(=O)[C@H](CCCCN)NC(=O)[C@H](CO)NC1=O [FLPFIAGMAAKFLPKIFCAISKKC]
MIC [6]: 2 µM (≈ 5.29 µg/mL)

CC[C@H](C)[C@H](NC(=O)[C@H](CC(C)C)NC(=O)[C@H](CO)NC(=O)[C@@H](NC(=O)[C@H](CC(C)C)NC(=O)[C@H](CO)NC(=O)[C@@H]1CCCN1C(=O)[C@H](CC(C)C)NC(=O)CNC(=O)[C@H](CCCCN)NC(=O)[C@H](C)NC(=O)[C@H](CC(C)C)NC(=O)[C@H](C)NC(=O)CNC(=O)[C@@H](NC(=O)[C@@H](NC(=O)[C@H](CO)NC(=O)CNC(=O)[C@H](Cc1ccccc1)NC(=O)[C@@H](N)Cc1ccccc1)[C@@H](C)CC)[C@@H](C)CC)[C@@H](C)CC)C(=O)N[C@@H](CCCCN)C(=O)N[C@@H](CCCCN)C(N)=O [FFGSIIGALAKGLPSLISLIKK]
MIC [1]: 6 µM (≈ 13.6 µg/mL) | MIC [6]: 12.5 µM (≈ 28.4 µg/mL)

CC[C@H](C)[C@H](NC(=O)[C@H](CC(C)C)NC(=O)[C@H](CC(C)C)NC(=O)[C@@H]1CCCN1C(=O)[C@H](CCCCN)NC(=O)[C@H](CC(C)C)NC(=O)[C@H](CCCCN)NC(=O)[C@@H]1CCCN1C(=O)[C@H](CC(C)C)NC(=O)[C@H](CC(C)C)NC(=O)[C@H](CC(C)C)NC(=O)[C@H](CCCCN)NC(=O)[C@H](CC(C)C)NC(=O)[C@H](CC(C)C)NC(=O)[C@H](CCCCN)NC(=O)[C@@H](N)Cc1ccc(O)cc1)C(=O)N[C@@H](CCCCN)C(=O)N[C@@H](CC(C)C)C(N)=O [YKLLKLLLPKLKPLLIKL]
MIC [8]: 5.27 µM (≈ 11.3 µg/mL) | MIC [11]: 67.3 µM (≈ 144 µg/mL) | MIC [5]: 2.28 µM (≈ 4.9 µg/mL)

CC(C)C[C@H](NC(=O)[C@H](CCCCN)NC(=O)[C@H](CCCCN)NC(=O)[C@H](CC(C)C)NC(=O)[C@H](C)NC(=O)[C@H](CCCCN)NC(=O)[C@H](C)NC(=O)[C@H](CC(C)C)NC(=O)[C@H](CC(C)C)NC(=O)[C@H](CCCCN)NC(=O)[C@H](C)NC(=O)[C@@H](N)Cc1ccccc1)C(N)=O [FAKLLAKALKKL]
MIC [9]: 7.44 µM (≈ 9.99 µg/mL) | MIC [10]: 18.6 µM (≈ 25 µg/mL)

CC[C@H](C)[C@H](NC(=O)[C@H](C)NC(=O)[C@H](CCC(=O)O)NC(=O)[C@H](Cc1cnc[nH]1)NC(=O)[C@H](Cc1ccccc1)NC(=O)CNC(=O)[C@H](CCC(N)=O)NC(=O)[C@H](Cc1ccccc1)NC(=O)[C@@H](NC(=O)[C@H](CCCCN)NC(=O)[C@H](CCCCN)NC(=O)[C@H](CC(C)C)NC(=O)[C@H](C)NC(=O)[C@H](CC(N)=O)NC(=O)[C@H](CC(C)C)NC(=O)CN)C(C)C)C(=O)N[C@@H](CCCCN)C(=O)N[C@@H](CC(C)C)C(=O)N[C@H](C(=O)N[C@@H](CC(N)=O)C(=O)N[C@@H](CC(N)=O)C(=O)N[C@@H](Cc1cnc[nH]1)C(=O)N[C@H](C(=O)N[C@@H](CCC(N)=O)C(=O)O)C(C)C)[C@@H](C)CC [GLNALKKVFQGFHEAIKLINNHVQ]
MIC [1]: > 80 µM | MIC [6]: ≥ 160 µM

CSCC[C@H](NC(=O)[C@H](CCCCN)NC(=O)[C@H](CC(C)C)NC(=O)[C@H](CC(C)C)NC(=O)[C@H](Cc1cnc[nH]1)NC(=O)[C@@H]1CCCN1C(=O)[C@H](CC(C)C)NC(=O)[C@H](CC(C)C)NC(=O)[C@H](Cc1c[nH]c2ccccc12)NC(=O)[C@H](CC(C)C)NC(=O)[C@H](CCCCN)NC(=O)[C@H](CCC(=O)O)NC(=O)CNC(=O)[C@H](C)NC(=O)[C@@H](NC(=O)[C@H](C)N)C(C)C)C(=O)N[C@@H](CC(C)C)C(=O)N[C@@H](CC(C)C)C(=O)N[C@H](C(=O)N1CCC[C@H]1C(=O)N[C@H](C(=O)N1CCC[C@H]1C(N)=O)[C@@H](C)O)[C@@H](C)O [AVAGEKLWLLPHLLKMLLTPTP]
MIC [1]: > 164 µM | MIC [7]: > 164 µM | MIC [8]: > 164 µM | MIC [3]: 164 µM (≈ 400 µg/mL) | MIC [12]: 164 µM (≈ 400 µg/mL)
